From patent US20250295686A1, “COMBINATION DECITABINE AND MPS1 INHIBITOR THERAPY TO PRIME CANCER IMMUNOGENICITY” (Dana-Farber Cancer Institute, Inc., priority 2021, published 2025)
“Also recorded” adds a separate entry of the source.

Tests used:
Assay type in all cases: cell-based, human
H1944 cells [1] = assay: Cell viability assay to determine an IC50 (CellTiter-Glo); details: Homo sapiens, NCI-H1944, 72 hours with drug
Excerpt: (§1) Due to their particular hypersensitivity, H1944 cells were utilized as a model system in which to conduct an unbiased screen of cytotoxic chemotherapies or targeted DNA-damaging agents for their ability to upregulate endogenous 2′3′-cGAMP production following pulse treatment, including cGAS-deficient H2122 cells as a counter-screen (FIGS. 3A and 3B). […] Additionally, hydroxyurea or nocodazole were included as controls to induce S-phase or M-phase cell cycle arrest. The IC50 was identified for each compound for cell viability in H1944 cells, and this concentration was utilized for the screen (FIG. 4A and Table 1). It was shown that each agent induced cellular cytotoxicity and/or DNA-damage response at this concentration, as measured by the induction of propidium iodide positive cells, cleaved PARP fragments, or histone TH2A.X expression (FIGS. 4B and 4C).
3000 cells were plated onto 96-well plates, and then cultured for 72 hours in the presence of each DNA-damaging agent at the indicated concentration. Values of CellTiter-Glo Luminescent Cell Viability assay (Promega) […] were normalized to vehicle treated cells. Plates were read on a Tecan Infinite M200 Pro plate reader and analysis was performed using Prism7 (GraphPad Software). All conditions were tested in triplicate.

STING pathway = assay: Screening of DNA-damaging agents: CXCL10 / IFN-β ELISA in conditioned medium of H1944 cells after pulse treatment
Excerpt: as §1
(§2) Human IFN-β (Thermo Fisher Scientific, Cat. #414101), human CXCL10 (R&D systems, Cat. #DIP100), mouse CXCL10 (R&D systems, Cat. #DY466), and 2′3′-cGAMP (Cayman Chemical, Cat. #501700) ELISAs were performed according to the manufacturer's instructions. Conditioned media from each cell lines was collected after 24 hour culture. Values represent the average of four replicates from at least two independent experiments (biological replicates).

H1944 cells [2] = assay: Quantification of micronucleus formation; details: 48-hour pulse treatment schedule, 200 nM CFI-402257, 5 nM docetaxel, 200 nM barasertib
Excerpt: MPS1 is a regulator of the spindle assembly checkpoint (SAC), and MPS1 inhibition in other contexts is known to facilitate massive chromosome missegregation (London and Biggins, 2014). This effect could therefore be related to the formation of micronuclei, known activators of cGAS-STING signaling generated by mitotic slippage and subsequent progression into G1 (Mackenzie et al., 2017). […] Furthermore, induction of CXCL10 mRNA expression in H1944 cells directly correlated with the number of micronuclei induced by these DNA-damaging agents, with CFI-402257 representing the clear outlier (FIG. 5C). Additionally, Lamin B2 over-expression, which is sufficient to inhibit micronuclei disruption (Hatch et al., 2013) and could protect against cGAS recognition, attenuated CXCL10 secretion induced by pulse treatment with MPS1 inhibitor (FIGS. 6A and 6B).
Cells were plated onto chamber slides (CellTreat, Cat #229168), and treated with DNA-damaging agents for 48 hours. […] Z-stack images were subjected to maximum projection followed by quantitative analysis using CellSens. All samples were imaged and analyzed with the same setting throughout the experiments. The number of micronuclei were counted from three different fields for each sample. […] Slides were imaged with Zeiss LSM 880 confocal microscopy, and colocalization was determined using ImageJ.

THP1 cells = assay: STING pathway activation (CXCL10 ELISA, immunoblot) in PMA-differentiated macrophage-like THP1 cells; details: 200 nM CFI-402257 screening schedule or 10 μM ADU-S100 24 hours
Procedure: Based on these observations, MPS1 inhibition might also induce micronuclei more efficiently in proliferating cancer cells as compared with non-genomically altered, non-proliferative cells in the TME such as immune cells and endothelial cells.
as §2
Cells were lysed in RIPA buffer containing 1× protease inhibitors (Roche, Cat #11-836-145-001) and phosphatase inhibitors (50 mmol/L NaF and 100 mmol/L Na3VO4). […] Imaging of blots and quantitation of bands was performed using the LICOR Odyssey system, or LAS-3000 (Fujifilm).

KL NSCLC cell lines = assay: CXCL10 ELISA after exogenous CDN exposure, KL NSCLC cell lines; details: 24 hours
Excerpt: Treatment with 2′3′-cGAMP or ADU-S100 was utilized to examine the sensitivity of KP or KL NSCLC cell lines to exogenous CDN exposure. […] KL cell response to extracellular CDNs was still modest as compared with endothelial cells (HUVEC) or monocytic THP-1 cells, which also have different membrane permeabilities (FIG. 2C) (Cordova et al., 2021; Luteijn et al., 2019; Ritchie et al., 2019).
as §2

| SMILES | IC50 (H1944 cells [1]) [nM] | CXCL10 secretion in H1944 cells following 48-hour pulse treatment (STING pathway; H1944 cells, IC50-based screening concentration, ELISA of conditioned medium) | CXCL10 induction at lower concentrations (STING pathway; H1944 cells, concentrations below the IC50, pulse treatment) | micronuclei formation (H1944 cells [2]) | STING pathway activation in macrophage-like THP1 cells (THP1 cells) | STING signaling activation in H1944 cells (STING pathway; 200 nM CFI-402257 screening schedule vs 10 μM ADU-S100 24 hours) | CXCL10 secretion, STING^Absent KL cell lines (KL NSCLC cell lines; A549, H23, A427, up to 100 μM) | CXCL10 secretion, STING^Low KL cells (KL NSCLC cell lines; H1944, H2122, H647, H1355, 3.125-100 μM) |
| --- | --- | --- | --- | --- | --- | --- | --- | --- |
| CC(=O)O[C@@]12CO[C@@H]1C[C@H](O)[C@@]1(C)C(=O)[C@H](O)C3=C(C)[C@@H](OC(=O)[C@H](O)[C@@H](NC(=O)OC(C)(C)C)c4ccccc4)C[C@@](O)([C@@H](OC(=O)c4ccccc4)[C@H]21)C3(C)C [docetaxel] | 3.97 | induce significant CXCL10 secretion; also recorded: partially activated CXCL10 production | not upregulated | generated micronuclei | – | – | – | – |
| Nc1ncnc2c1ncn2[C@@H]1O[C@@H]2COP(=O)([S-])O[C@@H]3[C@H](O)[C@@H](COP([O-])(=S)O[C@H]2[C@H]1O)O[C@H]3n1cnc2c(N)ncnc21.[Na+].[Na+] (some centres unmarked) [ADU-S100] | – | – | – | – | high sensitivity | negligible impact | failed to respond | dose-dependent manner |
